Two compounds from patent US20090155247A1, “Methods of Using Death Receptor Agonists and EGFR Inhibitors” (priority 2005, published 2009) can be followed below.

The test deals with H460 non-small lung cancer cells. Nature of the test: Growth of H460 tumor xenografts in vivo. To be noted: H460 cells injected subcutaneously in mice; compared with vehicle-treated mice; treatments as provided in FIG. 6. On the procedure: Mice were injected subcutaneously with H460 non-small lung cancer cells (ATCC) (5 million cells per mouse).

With “Apo2L/TRAIL: Apo2L/TRAIL polypeptide consisting of amino acids 114-281 of FIG. 1”, the tumor growth entry is recorded as “markedly delayed tumor growth”.

With `C#Cc1cccc(Nc2ncnc3cc(OCCOC)c(OCCOC)cc23)c1` [Tarceva™, N-(3-ethynylphenyl)-6,7-bis(2-methoxyethoxy)-4-quinazolinamine], the tumor growth result is listed as “markedly delayed tumor growth”.
